target: T1, Phosphatidylcholine-sterol acyltransferase (Homo sapiens, UniProt P04180); assay: Enzyme Assay; conditions: pH 7.5; 4 °C
T1 sequence (P04180 whole entry): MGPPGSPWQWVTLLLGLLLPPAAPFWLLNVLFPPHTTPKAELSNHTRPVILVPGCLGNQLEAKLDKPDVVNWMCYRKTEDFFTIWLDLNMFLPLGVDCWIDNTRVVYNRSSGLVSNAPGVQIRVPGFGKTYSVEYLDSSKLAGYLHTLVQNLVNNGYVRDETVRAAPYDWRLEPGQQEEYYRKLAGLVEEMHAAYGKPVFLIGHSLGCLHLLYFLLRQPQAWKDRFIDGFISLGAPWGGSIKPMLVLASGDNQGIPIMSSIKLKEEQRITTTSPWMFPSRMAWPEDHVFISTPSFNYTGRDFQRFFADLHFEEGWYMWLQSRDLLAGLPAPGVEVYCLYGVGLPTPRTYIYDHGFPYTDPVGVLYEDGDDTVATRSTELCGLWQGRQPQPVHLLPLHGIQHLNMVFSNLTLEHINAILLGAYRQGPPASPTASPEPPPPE
Procedure: The phospholipase A2 activity of LCAT was assayed using lecithin and apoA-I containing [9,10-3H] dipalmitoylphosphatidylcholine (DPPC) and measurement of the radioactive fatty acid released from the sn-2-position.

| IC50 [nM] | Structure (SMILES) |
| --- | --- |
| > 500 | CCCCCCCC(=O)C(F)(F)CCOP(=O)([O-])OCC[N+](C)(C)C [Difluoroketone phospholipid analogue, 1] |
| 60 | CCCCCCCCOCC(COP(=O)([O-])OCC[N+](C)(C)C)C(F)(F)C(=O)CCCCCCC (centres undefined) [Difluoroketone phospholipid analogue, 2] |
| 28 | CCCCCCCCCCCCCCCCC(=O)C(F)(F)C(COCCCCCCCC)COP(=O)([O-])OCC[N+](C)(C)C (centres undefined) [Difluoroketone phospholipid analogue, 3] |
| 60 | CCCCCCCC(=O)OCC(COP(=O)([O-])OCC[N+](C)(C)C)CC(=O)C(F)(F)CCCCCC (centres undefined) [Difluoroketone phospholipid analogue, 4] |
